In PubChem BioAssay (NCI) one finds TGI data, which are given here for 14 molecules.

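1) Cells in 96-well plates. 2) Compound, 48 h, 5 concentrations. 3) Linear interpolation between surrounding doses. 4) Unreached endpoint = highest concentration. TGI marks complete inhibition of growth.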 Some results are limits rather than exact numbers.

Some test systems named below: HCT-116 colon; HT29 colon; MALME-3M melanoma; MDA-MB-435; MOLT-4 leukemia; RXF 393 renal; SK-MEL-2 melanoma; SK-MEL-28 melanoma; SNB-19 CNS; UACC-62 melanoma.
What all share (assay): NCI-60 cell line screen, 48 h

Consider `COC(=O)c1cc(=O)[nH]c(=O)[nH]1`, for which the TGI with HCT-116 colon, with HT29 colon, in the test with MALME-3M melanoma, with MDA-MB-435, in the test on MOLT-4 leukemia and in the test on RXF 393 renal was over 100 µM each time. For the same molecule, the TGI with SK-MEL-2 melanoma, in the test on SK-MEL-28 melanoma, with SNB-19 CNS and with UACC-62 melanoma was over 100 µM in each case.
`CCCCC(=O)c1c(O)nc2sccn2c1=O`: the TGI in the test with HCT-116 colon, in the test on HT29 colon, in the test on MALME-3M melanoma, with MDA-MB-435, with MOLT-4 leukemia and in the test on RXF 393 renal was over 10 µM each time. Moreover, the TGI in the test on SK-MEL-2 melanoma, in the test on SK-MEL-28 melanoma, in the test with SNB-19 CNS and in the test with UACC-62 melanoma was over 10 µM throughout.
As to `CC(C)CNc1nc2ncnc(N)c2[nH]1`, the TGI in the test on HCT-116 colon, with HT29 colon, in the test on MALME-3M melanoma, in the test on MDA-MB-435, in the test with MOLT-4 leukemia and in the test on RXF 393 renal was over 100 µM each time. For the same molecule, the TGI in the test with SK-MEL-2 melanoma, in the test on SK-MEL-28 melanoma, in the test with SNB-19 CNS and with UACC-62 melanoma was over 100 µM throughout.
Consider `CN(C)c1ccc(/C(F)=C(F)/C(F)=C(F)/C(F)=C(\F)c2ccc(Br)cc2)cc1`, for which the TGI with HCT-116 colon is over 25.5 µM; in the test on HT29 colon it was 98 µM; in the test on MALME-3M melanoma it was over 71.8 µM; in the test on MDA-MB-435, 10.7 µM; in the test with MOLT-4 leukemia, over 79.6 µM; in the test on RXF 393 renal, 38.7 µM. The TGI in the test on SK-MEL-2 melanoma was over 100 µM; with SK-MEL-28 melanoma it was over 100 µM; in the test on SNB-19 CNS it was over 78.5 µM; with UACC-62 melanoma, over 100 µM.
Turning to `OCC(O)C(O)C(O)C(O)c1nc2ccc(Cl)cc2[nH]1` (stereo not drawn), the TGI with HCT-116 colon, with HT29 colon, in the test on MALME-3M melanoma, in the test with MDA-MB-435, in the test with MOLT-4 leukemia and in the test with RXF 393 renal was over 100 µM throughout. Also, the TGI in the test with SK-MEL-2 melanoma, with SK-MEL-28 melanoma, in the test with SNB-19 CNS and in the test on UACC-62 melanoma was over 100 µM in each case.
Take `Cc1ccc(OCC2OC(n3cnc4c(Cl)nc(N)nc43)CC2Oc2ccc(C)cc2)cc1` (stereo not drawn): the TGI in the test on HCT-116 colon is over 100 µM; in the test with HT29 colon it was over 100 µM; in the test with MALME-3M melanoma, over 85.3 µM; in the test with MDA-MB-435 it was over 100 µM; in the test on MOLT-4 leukemia it was over 100 µM; in the test on RXF 393 renal, over 100 µM. The TGI with SK-MEL-2 melanoma is over 56.9 µM; in the test on SK-MEL-28 melanoma, over 100 µM; with SNB-19 CNS, over 100 µM; with UACC-62 melanoma, over 100 µM.
Turning to `COc1ccc2c3c1OC1C(=O)C=CC4(CC2)N(C)CCC314` (stereo not drawn), the TGI in the test with HCT-116 colon is 29.1 µM; in the test with HT29 colon, over 100 µM; in the test on MALME-3M melanoma, over 100 µM; in the test with MDA-MB-435 it was 61.2 µM; in the test on MOLT-4 leukemia it was 59 µM; with RXF 393 renal, over 100 µM. In addition, the TGI with SK-MEL-2 melanoma came out at 54.3 µM; in the test with SK-MEL-28 melanoma it was 66.1 µM; in the test on SNB-19 CNS, 76.9 µM.
With `O=S(=O)(c1ccc(NC2=NC(c3ccc(O)cc3)(c3ccccc3O)c3ccccc32)cc1)c1ccc(NC2=NC(c3ccc(O)cc3)(c3ccccc3O)c3ccccc32)cc1` (stereo not drawn), the TGI was 25.2 µM in the test on HCT-116 colon; over 52.7 µM with HT29 colon; 13.1 µM in the test on MALME-3M melanoma; over 24.6 µM in the test on MDA-MB-435; 60.1 µM in the test with MOLT-4 leukemia; over 100 µM in the test with RXF 393 renal. Moreover, the TGI is 22.9 µM in the test with SK-MEL-2 melanoma, over 28 µM with SK-MEL-28 melanoma, over 100 µM in the test with SNB-19 CNS and over 100 µM with UACC-62 melanoma.
As for `N#CC1(C#N)NC(c2cccs2)C(C#N)(C#N)NC1c1cccs1` (stereo not drawn), the TGI in the test on HCT-116 colon was over 100 µM; in the test with HT29 colon, over 100 µM; in the test with MALME-3M melanoma, over 100 µM; in the test with MDA-MB-435 it was over 100 µM; in the test with MOLT-4 leukemia it was 60.2 µM; in the test on RXF 393 renal it was over 100 µM. Further, the TGI in the test with SK-MEL-2 melanoma was 50.5 µM; with SK-MEL-28 melanoma, over 100 µM; in the test on SNB-19 CNS, over 100 µM; in the test on UACC-62 melanoma, 57.9 µM.
In the case of `CCCCCCCC/C=C\CCCCCCC/C=C1\C[C@](/C=C/C(=O)OC)(CO)OC1=O`, the TGI is 6.26 µM in the test with HCT-116 colon; 25.8 µM in the test on HT29 colon; 2.86 µM with MALME-3M melanoma; 3.22 µM in the test on MDA-MB-435; 10.6 µM with MOLT-4 leukemia; 12.3 µM in the test with RXF 393 renal. In addition, the TGI in the test on SK-MEL-2 melanoma turned out to be 23.9 µM; with SK-MEL-28 melanoma, 3.38 µM; in the test on SNB-19 CNS, 16 µM; in the test with UACC-62 melanoma, 20.1 µM.
Turning to `COc1ccc(C2=Nc3cc(C)c(C)cc3NC(c3ccccc3)C2)cc1` (stereo not drawn), the TGI in the test with HCT-116 colon, with HT29 colon, with MALME-3M melanoma, in the test with MDA-MB-435, in the test on MOLT-4 leukemia and with RXF 393 renal was over 100 µM throughout. The TGI in the test with SK-MEL-2 melanoma, with SK-MEL-28 melanoma, in the test on SNB-19 CNS and in the test with UACC-62 melanoma was over 100 µM in each case.
Regarding `CCOC(=O)c1nc2ccc(C(F)(F)F)cc2nc1Oc1cc(OC)c(OC)c(OC)c1`, the TGI in the test with HCT-116 colon, in the test on HT29 colon, in the test on MALME-3M melanoma, with MDA-MB-435, in the test with MOLT-4 leukemia and with RXF 393 renal was over 100 µM in each case. Also, the TGI with SK-MEL-2 melanoma, in the test on SK-MEL-28 melanoma, in the test on SNB-19 CNS and with UACC-62 melanoma was over 100 µM each time.
As for `C[n+]1cccc2c(=O)c3ccccc3oc21`, the TGI in the test with HCT-116 colon, with HT29 colon, in the test with MALME-3M melanoma, in the test with MDA-MB-435, with RXF 393 renal and in the test on SK-MEL-2 melanoma was over 100 µM each time. In addition, the TGI with SK-MEL-28 melanoma, in the test with SNB-19 CNS and in the test with UACC-62 melanoma was over 100 µM in each case.
With `OC1(c2ccccc2)CCN(Cc2c[nH]c3ccccc23)CC1`, the TGI was over 100 µM in the test with HCT-116 colon; over 100 µM with HT29 colon; 52.4 µM with MALME-3M melanoma; over 100 µM in the test on MDA-MB-435; over 100 µM in the test on MOLT-4 leukemia; over 100 µM in the test on RXF 393 renal. Also, the TGI was 36.1 µM in the test with SK-MEL-2 melanoma, 56.9 µM in the test on SK-MEL-28 melanoma, over 100 µM with SNB-19 CNS and over 100 µM in the test on UACC-62 melanoma.
